Legend:
[1] = Inhibition of the oxidation of lipids: SA-PC in cyclohexane (Method IV); assay type: biochemical; settings: 37° C., absorption at 234 nm
Description: Oxidation of 1-stearoyl-2-arachidonoylphosphatidylcholine (SA-PC) in cyclohexane (37° C.). 100 mcl of a SA-PC solution (10 mg/ml of CHCl3) were evaporated by blowing (argon) and the residue was taken up in 1 ml of cyclohexane. After adding an amount of antioxidant which would also dissolve in olive oil (cf. Table 1), the absorption was measured at 234 nm (Perkin Elmer 5528 spektrophotometer, Uberlingan, FRG) and the solvent was then evaporated by blowing with air. After a fur%her 24 hours standing in an open vessel, the residue was again dissolved in i ml of cyclohexane and the absorption at 234 nm was measured as a measurement of the oxidized SA-PC.

[2] = tested on: proneness to thrombosis of hyperlipidemic infarct-sensitive rats; assay: Long-term administration in the hyperlipidemic infarct-sensitive rat: laser-induced thrombosis test (Method XI); assay type: in vivo; settings: 50 mg/kg oral, after 9 days
Description: Male infarct-sensitive rats about 200 g in weight (Mollegaard, Ejby, Denmark) were treated orally once daily with 1 ml/100 g of body weight of a standard diet (100 g of cholic acid, 100 g of cholesterol, 30 g of propylthiouracil to 1 l of sesame oil). While no test substance was administered to the control group I (cf. the following Table), the standard diet in the pharmaceutical experiments II-IV additionally contained 50 mg/kg of body weight of the test substances indicated in the table below. After 9 days, the rats were examined, as described above, in the laser-induced thrombosis test, and the total cholesterol content of the serum was determined.

[3] = Solubility in water and olive oil (Method III)
Description: a) Preparation of olive oil or aqueous solutions. 1 ml of olive oil or I ml of double-distilled water (or dilute NaOH pH=7.6) was added to 1 mg or 10 mg or 50 mg of the respective compound at 37° C. and it was checked whether a clear solution was obtained. The optionally centrifuged and decanted olive oil solutions were heated for 5 minutes using a Bunsen burner and the degree of browning of the olive oil was determined. […] Samples having poor protective action are given a (*) in the table (see below).

[4] = Long-term administration in the hyperlipidemic infarct-sensitive rat: total serum cholesterol (Method XI); assay type: in vivo; settings: 50 mg/kg oral, after 9 days; control 286
Description: While no test substance was administered to the control group I (cf. the following Table), the standard diet in the pharmaceutical experiments II-IV additionally contained 50 mg/kg of body weight of the test substances indicated in the table below. After 9 days, the rats were examined, as described above, in the laser-induced thrombosis test, and the total cholesterol content of the serum was determined. […] Moreover, the substances according to the invention exerted an advantageous hypolipidemic effect.

[5] = tested on: thrombus formation in rats; assay: Laser-induced thrombosis in rats in vivo (Method VIII); parameters: species or system rat; settings: 30 mg/kg oral, laser induction 60 min after administration
Description: The experimental procedure was carried out in every detail as described in U.S. Pat. No. 4,694,024. Laser induction took place 60 min after oral administration of the antioxidants.

[6] = Antioxidative radical scavenger properties by the diphenylpicrylhydrazine (DPPH) method (Method I); assay type: biochemical; settings: absolute ethanol
Description: Antioxidative radical scavenger properties by the diphenylpicrylhydrazine (DPPH) method: The determination was carried out spectrophotometrically (PMQ4 from Zeiss, Oberkochen, FRG) by the method described in Smith and Reeves, Biochemical Pharmacology 36 (1987) pp. 1457-1460. The measurement is the rate constant determined graphically (concentration versus conversion rate) in a known manner, measured in absolute ethanol.

[7] = olive oil, organic solvent or mixture

Row | Solubility, Olive oil ([3]; olive oil) | Solubility, Water ([3]; water) | Molecule | prevention of the oxidation of SA-PC, reduced dithiol vs. corresponding oxidized dithio compounds [1] | Reduction in proneness to thrombosis vs. control (%) [2] | solubility [3, 7] | solubility ([3]; water) | Total cholesterol [4] | Reduction of thrombus formation [5] | Reaction with DPPH (rate constant) [6]
1 | – | – | CCCCCCCCCCCCCCCCCCNC(=O)CCCCC(S)CCS (racemic) [Example 49] | possible to prevent the oxidation of SA-PC Just as effectively | 34% | > 10000 µg/mL | < 100 µg/mL | 259 mg/dL | 20% | –
2 | – | – | O=C1O[C@H]([C@@H](O)CO)C(O)=C1O [Ascorbic acid] | – | – | – | – | – | – | 2.99
3 | – | – | Cc1c(C)c2c(c(C)c1O)CCC(C)(C(=O)NCCCNC(=O)CC[C@@H](C)[C@H]1CC[C@H]3[C@@H]4CC[C@@H]5C[C@H](O)CC[C@]5(C)[C@H]4C[C@H](O)[C@]13C)O2 (some centres unmarked) [Example 2] | – | 50% | > 10000 µg/mL | > 100 µg/mL | 270 mg/dL | 14% | –
4 | > 10000 µg/mL | < 100 µg/mL | Vitamin E [reference compound] | – | 26% | – | – | 278 mg/dL | 5% | –
